Results on one compound are retold here after patent US20240165129A1, “METHODS OF TREATING PAIN AND DEPRESSION” (priority 2022, published 2024).

The subject of experiment [1] is C57BL/6J mice (inflammatory pain). Put plainly: Carrageenan-evoked inflammatory pain, von Frey paw withdrawal. It counts as in vivo, mouse. The settings on record: 12 mg/kg IV, 2 h after 2% carrageenan intraplantar. The protocol: Triol inhibits the above ASICs, so Triol has an analgesic effect. […] Experiments are performed on 12-week-old (20-25 g) C57BL/6J mice following the guidelines of the International Association for the Study of Pain. Inflammatory pain is evoked by intraplantar injection in the left hindpaw of 2% carrageenan (20 μl). After 2 h, Triol (12 mg/kg) or vehicle (20% HP-β-CD) is injected IV. The mechanical withdrawal threshold on the plantar surface of the hindpaw is measured with a set of von Frey hairs in the range of 0.4-26 gm (0.4, 1.2, 2, 4, 6, 8, 10, 15, 26 gm).

For experiment [2], the target named is T1, heteromeric ASIC1a/2a channels (UniProt P78348+Q62962).
T1 sequence (P78348 1-528): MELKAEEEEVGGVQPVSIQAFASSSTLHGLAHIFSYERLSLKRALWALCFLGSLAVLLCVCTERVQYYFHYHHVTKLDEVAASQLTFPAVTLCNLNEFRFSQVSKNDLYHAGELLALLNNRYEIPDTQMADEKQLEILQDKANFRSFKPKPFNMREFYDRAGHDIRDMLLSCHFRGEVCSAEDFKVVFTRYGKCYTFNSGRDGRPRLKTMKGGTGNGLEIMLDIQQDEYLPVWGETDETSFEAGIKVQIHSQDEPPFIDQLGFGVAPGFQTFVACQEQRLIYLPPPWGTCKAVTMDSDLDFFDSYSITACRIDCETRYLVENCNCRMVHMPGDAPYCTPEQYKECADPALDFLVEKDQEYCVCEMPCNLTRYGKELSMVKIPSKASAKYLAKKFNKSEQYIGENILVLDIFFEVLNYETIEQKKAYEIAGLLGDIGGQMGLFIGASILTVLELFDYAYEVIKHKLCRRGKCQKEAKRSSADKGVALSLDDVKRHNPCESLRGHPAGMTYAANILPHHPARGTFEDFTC
T1 sequence (Q62962 1-512): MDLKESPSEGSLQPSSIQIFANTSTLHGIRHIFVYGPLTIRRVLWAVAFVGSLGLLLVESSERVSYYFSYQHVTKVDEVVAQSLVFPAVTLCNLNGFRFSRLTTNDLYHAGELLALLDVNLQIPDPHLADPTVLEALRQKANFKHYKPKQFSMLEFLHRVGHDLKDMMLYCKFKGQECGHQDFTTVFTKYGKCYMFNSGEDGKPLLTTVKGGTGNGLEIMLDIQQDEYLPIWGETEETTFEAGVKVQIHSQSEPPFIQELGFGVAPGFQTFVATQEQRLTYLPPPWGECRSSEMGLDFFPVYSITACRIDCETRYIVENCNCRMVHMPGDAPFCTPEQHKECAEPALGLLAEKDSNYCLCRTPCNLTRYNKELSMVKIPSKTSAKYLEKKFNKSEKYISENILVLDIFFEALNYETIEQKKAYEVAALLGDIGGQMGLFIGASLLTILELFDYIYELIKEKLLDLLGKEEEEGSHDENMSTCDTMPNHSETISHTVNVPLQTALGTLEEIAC
The settings on record: Triol 10 μM, PcTx-1 insensitive cells, pH 6.0, n=4.
Procedure: ASIC currents were recorded using patch-clamp techniques. Pipette solution contained (mM): 140 CsF, 1 CaCl2, 2 MgCl2, 11 EGTA, 2 tetraethylammonium chloride, 10 HEPES and 4 MgATP, pH 7.3 adjusted with CsOH, 290-300 mOsm. Extracellular Fluid (ECF) contained (mM): 140 NaCl, 5.4 KCl, 2 CaCl2, 1 MgCl2, 10 glucose, and 10 HEPES (320-330 mOsm). A multi-barrel perfusion system (SF-77 Warner Instruments, Hamden, CT) was used to obtain a rapid exchange of ECFs. Currents were recorded with Axopatch 200B amplifier, filtered at 2 kHz, and digitized at 5 kHz using Digidata 1332A. ASIC currents were induced by rapid perfusion of the cells with acidic ECF for 4 seconds. Unless otherwise stated, cells were clamped at a holding potential of −60 mV. […] Data were excluded for statistical analysis when access resistance was >10 MΩ or leak current was >100 pA.
Only the GFP-positive cells were recorded. The GFP-positive CHO-1a cells may express a mix of homomeric ASIC1a, ASIC2a, or heteromeric ASIC1a/2a channels. Since homomeric ASIC2a channels are not activated at pH 6.0 37, the ASIC currents activated at pH 6.0 might be due to the activation of ASIC1a or ASIC1a/2a channels.

As to `CC(C)CCC[C@@H](C)[C@H]1CC[C@H]2[C@@H]3C[C@@H](O)[C@@]4(O)C[C@@H](O)CC[C@]4(C)[C@H]3CC[C@]12C` [Triol, cholestane-3β, 5α, 6β-triol], in experiment [1], the “latency for the paw withdrawal reflex” value is on record as “increases the latency for the paw withdrawal reflex”. Further, the “effect on PcTx-1 insensitive ASIC currents” value in experiment [2] is reported as “inhibited these currents”.
